From US6017877A, “Method and composition for treating thrombosis” (priority 1994, dated 2000) come the findings set out here.

Series [1] deals with platelets. Nature of the series: Platelet aggregation assay of Example XI. In kind it is cell-based. Particulars: for reactivity relative to 8X in platelet aggregation: fold more reactive than 8X. On the procedure: (§1) Platelet aggregation was assessed using the method of Born, Nature 194:927-929 (1962), incorporated herein by reference. Briefly, the change in light transmission was measured through a stirred suspension of platelets in an aggregometer (Model 400 VS, Chrono-Log, Havertown, Pa., USA). […] In studies using thrombin, the PRP was gel-filtered on Sepharose 2B in divalent ion-free Tyrode's solution containing 2% BSA. For all studies, the reference standard was platelet-poor plasma, which was obtained by centrifuging PRP at 1000× g for 5 min.
(Platelet count was determined with the aid of a hemacytometer.) Peptides and stimulants were added to these suspensions in 1% dilutions. The PRP and gel-filtered platelets were used within three hours from the time of blood collection.

The target in the next series is GP IIb/IIIa (Homo sapiens, UniProt P05106+P08514). The experiment in a line: Inhibition of binding of various ligands to GP IIb/IIIa. The note with it: fibrinogen vs fibronectin and vitronectin.
Series [2] has as its target T1, vitronectin receptor (Vn-R) (Homo sapiens, UniProt P05106+P06756).
T1 construct: from tissue; host or cells: human placenta
Nature of the series: VnR binding, ELISA or liposome attachment assay (Table I). A general note: An ELISA detects its analyte on a solid surface through an enzyme-linked reagent.
Method: Except where stated, all procedures were carried out at 4° C. The peptide column was washed with three volumes of Tris-buffered saline (TBS) containing 1 mM Ca^2+ and Ca^2+ and 25 mM OG and then with TBS containing 1 mM 25 mM octyl thioglucoside (OTG) at room temperature. […] Finally, Ca^2+ and Mg^+2 were added to eluted fractions to achieve final concentrations of 1 mM for both ions.
Maxisorp microtiter plates were coated with 2 μg/ml human vitronectin dissolved in PBS (50 ml/well) and stored overnight at 4° C. The plates were washed two times with PBS-0.05% Tween-20 (wash buffer) and blocked by incubating with about 150 μl/well of assay buffer (1%, BSA (RIA grade or better) in 50 mM Tris-HCl, 100 mM NaCl, 1 mM MgCl2, CaCl2, MnCl2 pH 7.4) for 60 minutes. Dilutions of standards were prepared and putative inhibitors (Table 2) were dissolved in assay buffer. The blocked plates were emptied and 20 μl/well of inhibitor or standard solution was added to each well. Twenty-five μl of a 30 μg/ml solution of purified αV β3 in assay buffer was pipetted into the coated plate. The final concentration of receptor in the assay well was about 15 μg/ml. The plate was incubated on a shaker for 60 minutes. Meanwhile, for each microtite plate, 6 ml buffer solution containing 1.5 μg/ml of mouse monoclonal antibody specific for β3 is prepared. To this solution was added the secondary antibody which is anti-mouse-Fc-HRP antibody conjugate. For example, for one plate, 6 ml of a 1.5 μg/ml mouse Mab solution was prepared to which was added 1 μl of anti-mouse-Fc-HRP antibody stock, (this represents a 1:6000 dilution of the antibody--HRP conjugate). This mixture was allowed to incubate during the receptor-inhibitor incubation. The assay plates were washed 4 times with PBS-Tween and 50 μl/well of the antibody mixture was then pipetted into the plate for a 60 minute incubation. The plate was washed 4 times and the color reaction was developed with 50 μl/well of 0.67 mg/ml o-phenyldiamine in PBS containing 0.012% H2 O2. Alternatively, 16 mM citric acid, 50 mM Na2 PO4 at pH 5.0 can be used as a substrate buffer. The reaction is stopped with 50 μl/well 1 M H2 SO4. The plates were read at 492-405 nm and the data analyzed by four-parameters fit.
Briefly, 1:4 mixture of labelled and unlabelled phosphatidylcholine (PC) liposomes was dissolved under nitrogen and diluted with an equal volume of purified receptor (purified as described in Example II) to achieve a fixed predetermined receptor-liposome concentration ratio. This mixture was then dialyzed overnight at 4° C. in phosphate buffered saline (PBS) containing 1 mM Ca^2+. An aliquot of the dialyzed sample was counted to assess radioactive content; the receptor-liposome mixture was then diluted to obtain a set radioactivity per unit volume. […]

The test system of series [3] is platelets. Nature of the series: Ex vivo platelet aggregation in canine coronary thrombosis model. The note with it: dog; for reduction of ex vivo aggregation relative to control levels: 3 mg/kg; for ex vivo platelet aggregation by all three stimuli: 10 mg/kg. The method, then: For all ex vivo studies (see FIG. 3), control aggregation values were standardized to the percentages of light transmission observed in PRP and PPP samples (0% and 100%, respectively).
Animals were randomly assigned to two treatment groups: vehicle control (i.e., normal saline) or RGD peptides at various concentrations. Peptides were administered intra-atrially in both bolus and continuous injections. Each bolus injection consisted of 0.5 to 10 mg/kg and was administered 15 minutes before application of the current. A continuous infusion of the same peptide was then started immediately after completion of this initial injection. Animals received a 25 μg/kg/min to 200 μg/kg/min infusion. The anti-thrombotic effects of the peptides were monitored until 30 minutes after the occurrence of a persistent, occlusive thrombus or five hours after the initiation of electrical stimulation (whichever resulted first). If an occlusive thrombus had not developed within four hours after the initiation of current, the peptide infusion was stopped.
Platelet counts and ex vivo aggregation studies were performed one hour before and 1, 3, and 5 hours after application of anodal direct current.
Platelet aggregation was also determined ex vivo at one, three, and five hours after current application. For these studies, arachidonic acid, or collagen was again used to stimulate the platelets.

In series [4] the test system is Gore-tex vascular graft thrombosis. Nature of the series: Platelet and fibrinogen uptake by Gore-Tex grafts in baboon ex vivo shunt. The note with it: baboon animal 2, 10 mg/kg bolus IV + 10 mg/kg/hr infusion for two hours. On the procedure:
Adult male baboons (weighing 16 to 25 kg) were used in these studies. These were sedated with ketamine hydrochloride (200 to 250 mg intramuscular injection) and maintained under anesthesia with sodium pentobarbital (50 to 75 mg administered intravenously as necessary).
Twenty-four hours before the ex vivo shunt was established, platelets were isolated from 500 ml of blood from the test animal and labelled with ca. 500 microcuries of indium-111 oxine (Medi+Physics, Emeryville, Calif.), which irreversibly and specifically binds to platelets with an efficiency of 50%. Immediately after labelling, these platelets were then injected back into the animal and allowed to circulate for 24 hours. Immediately before the start of the study, fibrinogen that had been isolated from the animal and labelled with iodine-131 (DuPont Nuclear, Boston, Mass.) was also injected back into the animal. Also at this time, baseline determinations of the clotting and template bleeding times were made, and blood samples were drawn for hematology studies.
To establish the ex vivo shunt, the femoral artery and vein were percutaneously cannulated with introducer catheters (KMA Inc., Mansfield, Mass.). […]
Platelet deposition onto the grafts was monitored by dynamic scanning with a gamma camera (Sigma 400, Ohio Nuclear, Inc., Sohon, Ohio), which detects the gamma radiation emitted by the ^111 indium-labelled platelets. […]

For the next series, the system named is coronary thrombosis. The experiment in a line: Electrically induced canine coronary thrombosis, time to full occlusion. In kind it is in vivo. The note with it: dog. On the procedure: Male mongrel dogs weighing 14 to 20 kg were selected based on proper aggregation of their platelets in response to arachidonic acid, collagen, and adenosine disphosphate (ADP) and based on similar weights and hemodynamic properties.
Before surgery, the animals were anesthetized with sodium pentobarbital (30 mg/kg, i.v.) and then intubated and ventilated on room air with positive pressure using a respirator (Harvard Apparatus, S. Natick, Mass.) at a volume of 30 ml/kg and a frequency of 12 breaths/min. Surgery, performed under aseptic conditions, was begun with the placement of cannulae into the left carotid artery and jugular vein for monitoring arterial blood pressure (Statham P23 pressure transducer, Gould, Inc., Cardiovascular Products, Oxnard, Calif.) and administering intravenous fluids.
The heart was exposed via a left thoracotomy through the 5th intercostal space. […]
Animals were randomly assigned to two treatment groups: vehicle control (i.e., normal saline) or RGD peptides at various concentrations. […] The anti-thrombotic effects of the peptides were monitored until 30 minutes after the occurrence of a persistent, occlusive thrombus or five hours after the initiation of electrical stimulation (whichever resulted first). […]
Coronary thrombosis was quantified as the time to full occlusion. […]

In series [5] the test system is platelets. The experiment in a line: Baboon ex vivo platelet aggregation (ADP). In kind it is in vivo. Particulars: baboon animal 2, PRP, ADP 10 μm. The method, then: At one- and two-hour time points, template bleeding times were measured, and blood samples were drawn to assess the hematology aggregation studies. Platelet aggregation studies were performed as described in Example V using ADP as the stimulus.
In addition, platelet aggregation studies were conducted on PRP derived from the second animal. Whole blood was drawn at three time points (0, 1 and 2 hours) of both control and experimental shunts.

The subject of series [6] is platelets. The experiment in a line: Thrombin-stimulated platelet aggregation (Table I). The format is cell-based, human. Particulars: thrombin 2 U/ml, gel-filtered platelets. On the procedure:
as §1, with “Platelet aggregation assays were performed following the methods of this Example or those of Example IX.G. Platelet” for “Platelet”
All aggregation studies were performed at 37° C. with a constantly stirred suspension of 3×10^8 platelets/ml. (Platelet count was determined with the aid of a hemacytometer.) Peptides and stimulants were added to these suspensions in 1% dilutions. The PRP and gel-filtered platelets were used within three hours from the time of blood collection.
Peptide anti-aggregation potencies were determined from dose-responsive curves for the inhibition of the maximum aggregation responses stimulated by physiologic doses of ADP (10 μm) and thrombin (2 U/ml).

The test system of series [7] is platelets. In kind it is cell-based, human. The note with it: ADP 10 μm, platelet-rich plasma; read-out: ADP-Stimulated Aggregation (IC50).
Series [8] can be described thus: Rabbit peripheral blood flow (PBF), laser dopler flow probe. In kind it is in vivo. Particulars: time 10 min, bolus dose printed with drug.
Method: In an alternative series of experiments, (Table 2) PBF was measured quantitatively with a laser dopler flow probe (Perimed). The probe was positioned securely over the vascular bed of one ear and flow monitored continuously. Each inhibitor was infused and CBT measured in the opposing ear. No arterial catheter was placed for blood sampling, consequently XPA was measured in these animals.

Values joined by “and” are separate entries in the source; they are usually repeats but may differ in a detail not shown here. Equal values may be shown once. Read-outs that look alike come from different tables or passages of the source.

By IC50 is commonly meant the concentration that gives 50% inhibition.

T1 sequence (P06756 31-889 limits assumed): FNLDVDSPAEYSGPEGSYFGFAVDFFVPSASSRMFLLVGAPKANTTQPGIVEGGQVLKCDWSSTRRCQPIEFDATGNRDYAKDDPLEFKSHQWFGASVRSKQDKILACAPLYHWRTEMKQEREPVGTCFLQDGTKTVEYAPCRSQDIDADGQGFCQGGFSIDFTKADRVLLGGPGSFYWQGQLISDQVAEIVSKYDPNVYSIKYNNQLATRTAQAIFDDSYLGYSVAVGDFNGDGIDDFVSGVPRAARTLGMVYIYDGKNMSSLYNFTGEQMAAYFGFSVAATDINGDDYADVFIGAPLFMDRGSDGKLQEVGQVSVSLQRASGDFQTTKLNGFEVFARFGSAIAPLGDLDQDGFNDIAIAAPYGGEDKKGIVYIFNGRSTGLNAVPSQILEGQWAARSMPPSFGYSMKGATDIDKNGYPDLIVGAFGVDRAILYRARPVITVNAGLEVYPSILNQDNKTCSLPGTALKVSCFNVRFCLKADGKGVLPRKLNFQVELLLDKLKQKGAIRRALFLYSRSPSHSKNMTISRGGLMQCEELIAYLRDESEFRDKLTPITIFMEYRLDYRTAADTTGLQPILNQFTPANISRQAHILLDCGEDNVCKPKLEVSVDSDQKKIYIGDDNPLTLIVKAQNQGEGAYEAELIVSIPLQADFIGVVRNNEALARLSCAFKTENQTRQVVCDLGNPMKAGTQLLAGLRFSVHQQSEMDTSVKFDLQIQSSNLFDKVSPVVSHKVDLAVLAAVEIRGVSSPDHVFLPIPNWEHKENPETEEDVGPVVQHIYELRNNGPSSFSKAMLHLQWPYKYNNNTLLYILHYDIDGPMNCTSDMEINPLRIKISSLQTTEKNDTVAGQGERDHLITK
T1 sequence (P06756 891-1048 partner limits assumed): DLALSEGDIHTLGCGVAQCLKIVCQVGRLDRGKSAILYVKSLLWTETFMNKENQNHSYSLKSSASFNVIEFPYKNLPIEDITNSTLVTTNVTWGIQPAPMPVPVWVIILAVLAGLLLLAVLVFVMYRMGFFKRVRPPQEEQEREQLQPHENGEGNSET
T1 sequence (P05106 27-788): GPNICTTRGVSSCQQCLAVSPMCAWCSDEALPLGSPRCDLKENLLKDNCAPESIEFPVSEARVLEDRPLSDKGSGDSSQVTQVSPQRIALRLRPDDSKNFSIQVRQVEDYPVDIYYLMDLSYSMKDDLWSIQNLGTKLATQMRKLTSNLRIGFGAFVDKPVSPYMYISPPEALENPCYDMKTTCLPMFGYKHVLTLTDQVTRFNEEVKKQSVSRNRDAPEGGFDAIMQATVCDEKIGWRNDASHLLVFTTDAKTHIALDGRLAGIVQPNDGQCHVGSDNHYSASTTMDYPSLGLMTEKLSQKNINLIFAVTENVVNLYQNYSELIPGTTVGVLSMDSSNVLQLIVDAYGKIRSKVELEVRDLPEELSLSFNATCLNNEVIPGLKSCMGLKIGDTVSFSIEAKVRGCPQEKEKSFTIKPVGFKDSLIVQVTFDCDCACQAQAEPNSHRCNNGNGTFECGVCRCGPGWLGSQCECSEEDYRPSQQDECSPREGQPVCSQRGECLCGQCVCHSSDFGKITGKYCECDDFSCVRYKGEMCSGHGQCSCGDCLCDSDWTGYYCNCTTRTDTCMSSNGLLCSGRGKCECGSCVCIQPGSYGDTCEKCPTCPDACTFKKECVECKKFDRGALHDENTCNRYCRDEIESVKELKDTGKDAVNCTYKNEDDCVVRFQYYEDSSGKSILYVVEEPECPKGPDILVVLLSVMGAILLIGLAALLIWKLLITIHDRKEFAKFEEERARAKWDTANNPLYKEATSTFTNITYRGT
GP IIb/IIIa, sequence (P08514 32-887 limits assumed): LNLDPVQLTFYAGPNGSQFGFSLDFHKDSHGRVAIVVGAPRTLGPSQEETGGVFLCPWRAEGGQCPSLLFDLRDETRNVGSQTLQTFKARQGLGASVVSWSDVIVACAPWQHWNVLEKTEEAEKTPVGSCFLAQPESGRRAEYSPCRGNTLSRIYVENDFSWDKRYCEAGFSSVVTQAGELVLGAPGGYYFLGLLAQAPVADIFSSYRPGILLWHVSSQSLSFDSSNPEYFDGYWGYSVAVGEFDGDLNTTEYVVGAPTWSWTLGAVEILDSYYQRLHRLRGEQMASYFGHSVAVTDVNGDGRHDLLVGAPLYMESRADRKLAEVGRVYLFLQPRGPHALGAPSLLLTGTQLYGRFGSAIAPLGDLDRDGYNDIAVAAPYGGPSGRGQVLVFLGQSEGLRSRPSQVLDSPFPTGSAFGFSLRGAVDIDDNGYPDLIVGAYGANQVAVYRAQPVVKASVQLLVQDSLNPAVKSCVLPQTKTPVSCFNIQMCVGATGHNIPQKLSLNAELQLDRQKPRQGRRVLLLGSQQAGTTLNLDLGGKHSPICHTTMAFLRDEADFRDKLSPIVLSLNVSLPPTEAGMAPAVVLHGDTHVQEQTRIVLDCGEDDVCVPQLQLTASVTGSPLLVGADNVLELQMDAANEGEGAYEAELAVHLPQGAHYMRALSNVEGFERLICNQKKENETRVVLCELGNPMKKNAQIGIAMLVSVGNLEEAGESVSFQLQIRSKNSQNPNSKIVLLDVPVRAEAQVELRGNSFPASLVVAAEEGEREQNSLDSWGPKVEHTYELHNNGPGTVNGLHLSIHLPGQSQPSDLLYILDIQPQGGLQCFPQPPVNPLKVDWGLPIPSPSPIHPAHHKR
GP IIb/IIIa, sequence (P08514 891-1039 partner limits assumed): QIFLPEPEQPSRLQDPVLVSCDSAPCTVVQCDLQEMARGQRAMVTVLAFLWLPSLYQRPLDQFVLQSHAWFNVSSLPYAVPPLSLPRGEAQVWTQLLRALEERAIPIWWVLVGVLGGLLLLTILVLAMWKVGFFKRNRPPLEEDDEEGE
GP IIb/IIIa, sequence (P05106 27-788): as the sequence (P05106 27-788) above

As for (Mpr)RGD(O-Me-Y)RC-NH2 [16A], the “reactivity relative to 8X in platelet aggregation” value in the series with platelets [1] is “about two-fold”.
For Ac--CNPRGD(Y--OMe)RCNH2 [8X], the “differential inhibition of ligand binding to GP IIb/IIIa” value on GP IIb/IIIa was “inhibits the binding of fibrinogen to GP IIb/IIIa more than it inhibits the binding of fibronectin and vitronectin to the same integrin”.
For FRGDSPDG, in series [2], the IC50 was 40 nM.
As to G(Pen)GHRGDLRCA [2G], in the series on platelets [3] (10 mg/kg, 1, 3 and 5 h), the “ex vivo ADP-stimulated aggregation” value is recorded as “substantially inhibited”. In series [4], the “reduction in labelled fibrinogen uptake by graft” value is on record as 78% and the “reduction in labelled platelet uptake by graft” value stood at 84%. The “coronary thrombosis, time to full occlusion” value in the series with coronary thrombosis (10 mg/kg) was “did not significantly influence”. In addition, the “ex vivo platelet aggregation response” value with platelets [5] was “completely unresponsive”.
Take GNPRGD(O-Me-Y)RD-NH2 [20Q]: in the series with platelets [1] (times more potent than 17J), the “potency relative to 17J” value is “about three”. In the series with platelets [1] (times more potent than 18J), the “potency relative to 18J” value was “about 20”.
Consider LRGDSPDG, for which the IC50 in series [2] was 200 nM.
R2 (Pen)GRGDTPCA: the IC50 is 2700 nM in the series with platelets [6] and 8200 nM in the series on platelets [7].
Consider R(Pen GRGDWPCR [4R], for which the “reduction of ex vivo aggregation relative to control levels” value with platelets [3] (one hour) is 20-58%; in the series with platelets [3] (three and five hours) it was 75-100% and 72-100%. Moreover, in the series with platelets [3], the “ex vivo platelet aggregation by all three stimuli” value was “unresponsive to all modes of stimulation at all time points”. Also, in the series on coronary thrombosis (3 mg/kg), the “coronary thrombosis, time to full occlusion” value is “ineffective”. In addition, inhibition with platelets [6] was half-maximal at 530 nM (IC50).
Consider R(Pen)GHRGDWRCR [4Q], for which the “ex vivo platelet activation by collagen” value in the series on platelets [3] (5 mg/kg) is given as “near-maximal inhibition”. Further, the “ex vivo platelet response to ADP and AA” value in the series on platelets [3] (5 mg/kg, all three time points) is “completely unresponsive”. Moreover, the “ex vivo platelet aggregation by all three stimuli” value with platelets [3] is listed as “prevented platelet aggregation by all three stimuli”. In [8], this substance gave a PBF of 9 units.
In the case of RGD(O-Me-Y)RE-NH2 [21I], the “reactivity relative to 8X in platelet aggregation” value with platelets [1] is “about three-fold”.
On to VRGDSPDG, for which the IC50 in series [2] is 240 nM.
Same read-out and setting: as for YRGDSPDG, the figure is 80 nM.
